Results as given in patent publication EP4121415B1, “INHIBITORS OF CYTOKININ OXIDASE DERIVED FROM 1-[2-(HYDROXYALKYL)PHENYL]-3-YLUREA, USE THEREOF AND PREPARATIONS CONTAINING THESE DERIVATIVES” (Univerzita Palackého v Olomouci, priority 2020, dated 2021).
Where two headings read alike, the source gives them in different places.

Tests used:
[1] = test system: segments of wheat leaves (Triticum aestivum cv. Hereward); test: wheat leaf senescence assay performed in the dark (chlorophyll retention in detached leaf segments); assay type: in vivo; conditions: 10 micromolar, 96 hours in the dark at 25 °C, compared to yellow control (0,2% DMSO); for activation at 10 µM: Triticum aestivum, foliar, read-out: (% of chlorophyll above control)
Procedure: Seeds of winter wheat (Triticum aestivum cv. Hereward) was washed under running water for 4 hours and then sown in vermiculite saturated with Knop's nutrient solution. The trays with seeds were placed in an air-conditioned growth chamber with a 16/8 hour light regime (light intensity 50 µmol.m^-2.s^-1) and a temperature of 15 °C. After 7 days, the seedlings had developed the first […] and the second leaf began to grow. Top sections approximately 4 cm long were excised from the first leaves of 4 plants and their combined weight was adjusted to exactly 100 mg. The basal ends of these 4 leaf segments were placed in the wells of microtiter polystyrene plates containing solution (150 µL) of the tested derivative. The plates were placed in a plastic box with filter paper, which was saturated with water (to maintain the maximum humidity). After 96 hours of incubation in the dark at 25 °C, the leaf segments were removed and the chlorophyll was extracted to 5 mL of 80% ethanol by heating the leaf segments in ethanol at 80 °C for 40 min. The sample volume was then adjusted to 5 mL by adding 80% ethanol. The absorbance of the extracts was measured at 665 nm. Chlorophyll extracts from leaf segments incubated in deionized water (so-called yellow control) were also measured as controls. Freshly cut leaves (100 mg) were used as a green control, from which chlorophyll was extracted and measured in the same manner. The calculated values are the average of 5 replicates and the whole experiment was repeated two times. The tested compounds were dissolved in dimethyl sulfoxide (DMSO) to a concentration 10^-2 M. This stock solution was further diluted with water to a concentration of 10 micromolar. At this concentration, the substances were tested.

[2] = molecular target: T1, maize enzyme cytokinin oxidase/dehydrogenase 1 (ZmCKX1) (Zea mays, UniProt Q9T0N8); test: ZmCKX1 inhibition, PMS/MTT assay; assay type: biochemical
T1 construct: made in house; host or cells: Yarrowia lipolytica
T1 sequence (Q9T0N8 19-534): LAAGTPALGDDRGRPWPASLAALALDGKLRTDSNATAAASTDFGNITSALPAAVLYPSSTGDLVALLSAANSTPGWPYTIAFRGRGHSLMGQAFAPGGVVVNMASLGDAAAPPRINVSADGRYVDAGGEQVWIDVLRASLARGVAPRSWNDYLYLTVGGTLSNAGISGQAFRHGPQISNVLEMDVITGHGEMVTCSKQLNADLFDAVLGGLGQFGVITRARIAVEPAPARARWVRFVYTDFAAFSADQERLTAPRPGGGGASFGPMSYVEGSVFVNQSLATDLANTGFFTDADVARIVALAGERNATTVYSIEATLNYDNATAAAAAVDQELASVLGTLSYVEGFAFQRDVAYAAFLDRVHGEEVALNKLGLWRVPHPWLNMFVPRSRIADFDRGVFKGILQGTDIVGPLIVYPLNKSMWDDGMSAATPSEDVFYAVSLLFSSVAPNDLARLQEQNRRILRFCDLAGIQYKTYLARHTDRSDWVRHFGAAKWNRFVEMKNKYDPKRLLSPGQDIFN
Procedure: The IC50 (concentration of a substance that causes 50% inhibition of the enzyme activity) was measured by PMS/MTT assay [phenazine methosulphate/3-(4,5-dimethylthiazol-2-yl)-2,5-diphenyltetrazolium bromide]. The assay was performed in 96-well microtiter plates. Each well contained a reaction mixture with a final concentration of: 0.1 M KH2PO4, pH 7.4, 1 mM MTT, 0.2 mM PMS, tested substance in a concentration range of 0.1 nM - 1 µM and 10 µM N^6-isopentenyladenine (iP) as a substrate. To this reaction mixture 100 µL of medium containing the active enzyme ZmCKX1 was added. The enzyme was produced by the yeast Yarrowia lipolytica and isolated according to the protocol (Kopečný D. et al., 2005, […] 87:1011-1022). The plates were incubated for 30 min at 37 °C and the enzymatic reaction was stopped by the addition of 25 µL of 35% acetic acid. Then, the absorbance at 578 nm was measured on a spectrophotometer, and the absorbance of the sample without the substrate was substracted as a reference value. The IC50 value was determined from the concentration-dependent curves in GraphPad Prism software. The values shown in Table 1 are the average of at least two measurements each performed in three repetitions. […] This also applies to 3,5-DCl-Ph-U derivatives.

[3] = test system: winter wheat (Triticum aestivum cv. Hereward); test: salt-induced senescence of wheat plants; assay type: in vivo; conditions: 100 nM aqueous solution, 75 mM NaCl seven days after planting, assessed 30 days after planting
Procedure: To investigate the effects of compounds 64 and 66 on salt-induced senescence, seeds of winter wheat (Triticum aestivum cv. Hereward) were washed under running water for 4 hours and then sown on perlite soaked with water (control) or 100 nM aqueous solution of compounds 64 or 66. Trays with seeds were placed in a growth chamber at 25 °C for 16/8 h light/dark at an intensity of 50 µmol.m^-2.s^-1. Seven days after planting, the plants were treated with 75 mM NaCl solution. The plants were allowed to grow and the plant damage was assessed 30 days after planting.
While untreated plants have the first leaves dead and the second leaves yellow, plants treated with CKX inhibitors have the first leaves yellowing and the second leaves green. […] This in vivo experiment is evidence that CKX inhibitors prolong the photosynthetic activity of wheat plants that have been exposed to environmental stress.

[4] = 10 µM N6-isopentenyladenine (iP) as substrate, pH 7.4, 30 min at 37 °C, average of at least two measurements, read-out: IC50 (µM) ZmCKX1

IC50 [2, 4] | Structure (SMILES) | activation at 10 µM [1] | IC50 [2] | (% of chlorophyll above control) [1] | plant damage and senescence under salinity stress [3] | total chlorophyll content in whole plants: untreated salinity-stressed plants have less chlorophyll than treated stressed plants [3]
– | O=C(Nc1ccccc1)Nc1ccnc(Cl)c1 [CPPU, 1-(2-chloropyridin-4-yl)-3phenylurea, reference compound] | 12% | 20.5 µM | – | – | –
0.27 µM | O=C(Nc1ccnc(F)c1)Nc1cc(Cl)ccc1CO [Compound 2, 1-(5-chloro-2-hydroxymethylphenyl)-3-(2-fluoropyridin-4-yl)urea] | 23% | – | – | – | –
0.1 µM | O=C(Nc1cc(Cl)nc(Cl)c1)Nc1cc(Cl)ccc1CO [Compound 6, 1-(5-chloro-2-hydroxymethylphenyl)-3-(2,6-dichloropyridin-4-yl)urea] | 29% | – | – | – | –
– | COc1cc(NC(=O)Nc2cc(Br)ccc2CO)ccn1 [Compound 8, 1-(5-bromo-2-hydroxy-methylphenyl)-3-(2-methoxypyridin-4-yl)urea] | – | 0.13 µM | 25% | – | –
0.095 µM | O=C(Nc1cc(F)nc(F)c1)Nc1cc(Cl)ccc1CCO [Compound 11, 1-[5-chloro-2-(2-hydroxyethyl)phenyl]-3-(2,6-difluoropyridin-4-yl)urea] | 31% | – | – | – | –
0.081 µM | COc1cc(NC(=O)Nc2cc(Cl)cc(Cl)c2CCO)ccn1 [Compound 16, 1-[3,5-dichloro-2-(2-hydroxyethyl)phenyl]-3-(2-methoxypyridin-4-yl)urea] | 35% | – | – | – | –
– | COc1cc(Br)cc(NC(=O)Nc2ccccc2CO)c1 [Compound 22, 1-(3-bromo-5-methoxyphenyl)-3-(2-hydroxymethylphenyl)urea] | – | 0.26 µM | 25% | – | –
0.024 µM | COc1cc(NCCN)cc(NC(=O)Nc2cc(Cl)ccc2CO)c1 [Compound 25, 1-(5-chloro-2-hydroxymethylphenyl)-3-[3-(2-aminoethylamino)-5-methoxyphenyl]urea] | 45% | – | – | – | –
– | CSc1cccc(NC(=O)Nc2cc(Br)ccc2CO)c1 [Compound 27, 1-(5-bromo-2-hydroxy-methylphenyl)-3-(3-methylsulphanylphenyl)urea] | – | 0.17 µM | 26% | – | –
– | O=C(Nc1cccc(OC(F)(F)F)c1)Nc1cc(Br)ccc1CO [Compound 34, 1-(5-Bromo-2-hydroxymethylphenyl)-3-(3-trifluoromethoxyphenyl)urea] | – | 0.1 µM | 32% | – | –
0.01 µM | NCCNc1cc(NC(=O)Nc2cc(Cl)ccc2CO)cc(OC(F)(F)F)c1 [Compound 40, 1-(5-chloro-2-hydroxymethylphenyl)-3-[3-(2-aminoethylamino)-5-trifluoromethoxyphenyl]urea] | 39% | – | – | – | –
0.08 µM | O=C(Nc1cccc(SC(F)(F)F)c1)Nc1cc(F)ccc1CO [Compound 42, 1-(5-fluoro-2-hydroxymethylphenyl)-3-(3-trifluoromethylsulphanylphenyl)urea] | 25% | – | – | – | –
0.08 µM | COc1cccc(NC(=O)Nc2cc(F)ccc2CCO)c1 [Compound 51, 1-[5-fluoro-2-(2-hydroxyethyl)phenyl]-3-(3-methoxyphenyl)urea] | 30% | – | – | – | –
0.066 µM | COc1cccc(NC(=O)Nc2cc(Cl)ccc2CCO)c1 [Compound 52, 1-[5-chloro-2-(2-hydroxyethyl)phenyl]-3-(3-methoxyphenyl)urea] | 37% | – | – | – | –
0.008 µM | COc1cc(NCCN)cc(NC(=O)Nc2cc(Cl)ccc2CCO)c1 [Compound 59, 1-[5-chloro-2-(2-hydroxyethyl)phenyl]-3-[3-(2-aminoethylamino)-5-methoxyphenyl]urea] | 48% | – | – | – | –
0.035 µM | CSc1cccc(NC(=O)Nc2cc(Cl)ccc2CCO)c1 [Compound 60, 1-[5-chloro-2-(2-hydroxyethyl)phenyl]-3-(3-methylsulphanylphenyl)urea] | 36% | – | – | – | –
0.021 µM | O=C(Nc1cccc(OC(F)(F)F)c1)Nc1cc(Cl)ccc1CCO [Compound 62, 1-[5-chloro-2-(2-hydroxyethyl)phenyl]-3-(3-trifluoromethoxyphenyl)urea] | 39% | – | – | – | –
– | O=C(Nc1cc(Cl)cc(OC(F)(F)F)c1)Nc1ccccc1CCO [Compound 64, 1-(3-Chloro-5-trifluoromethoxyphenyl)-3-[2-(2-hydroxyethyl)phenyl]urea] | – | 0.058 µM | – | reduced the damage and delayed the senescence | 27%
– | O=C(Nc1cc(Br)cc(OC(F)(F)F)c1)Nc1ccccc1CCO [Compound 65, 1-(3-Bromo-5-trifluoromethoxyphenyl)-3-[2-(2-hydroxyethyl)phenyl]urea] | – | 0.035 µM | 30% | – | –
0.029 µM | O=C(Nc1cc(NCCO)cc(OC(F)(F)F)c1)Nc1ccccc1CCO [Compound 66, 1-[3-(2-Hydroxyethylamino)-5-trifluoromethoxyphenyl]-3-[2-(2-hydroxyethyl)phenyl]urea] | 36% | – | – | reduced the damage and delayed the senescence | 27%
0.074 µM | O=C(Nc1cccc(SC(F)(F)F)c1)Nc1ccccc1CCO [Compound 68, 1-[2-(2-Hydroxyethyl)phenyl]-3-(3-trifluoromethylsulphanylphenyl)urea] | 34% | – | – | – | –

Structure (SMILES) | IC50 [2, 4] | activation at 10 µM [1] | IC50 [2] | (% of chlorophyll above control) [1] | plant damage and senescence under salinity stress [3] | total chlorophyll content in whole plants: untreated salinity-stressed plants have less chlorophyll than treated stressed plants [3]
COc1cccc(NC(=O)Nc2cc(Br)ccc2CCO)c1 [Compound 53] | 0.074 µM | – | – | 35% | – | –
